Results published in ChEMBL document CHEMBL1135220, “Novel, potent non-covalent thrombin inhibitors incorporating p(3)-lactam scaffolds” (Bioorg Med Chem Lett, 2002).

Key:
Trypsin = Trypsin (Homo sapiens, UniProt P07477+P07478+P35030); assay: Inhibitory constant against trypsin determined in Vitro; assay type: protein assay
[1] = Oral bioavailability in dog (fasted); assay type: ADME, organism-based, Canis lupus familiaris; settings: in vivo
Coagulation factor X [2] = biological target: T1, Coagulation factor X (Homo sapiens, UniProt P00742); assay: Inhibitory constant against human Coagulation factor Xa determined in Vitro
Prothrombin = Prothrombin (Homo sapiens, UniProt P00734); assay: Inhibitory constant against human thrombin (FIIa) determined in vitro
[3] = Maximum plasma concentration was determined in dogs at 1 mg/kg oral dosing; 0.05-0.2 ug/mL; assay type: ADME, organism-based, Canis lupus familiaris; parameters: dose 1 mg/kg, route oral; settings: dog
[4] = Half life in dogs at 1 mg/kg oral dosing; 35-100 min; assay type: ADME, organism-based, Canis lupus familiaris; parameters: dose 1 mg/kg, route oral; settings: dog, in vivo
[5] = Area Under Curve for the compound was determined in dogs at 1 mg/kg oral dosing; 25-50 ug min/mL; assay type: ADME, organism-based, Canis lupus familiaris; parameters: dose 1 mg/kg, route oral; settings: dog, in vivo
Serine protease 1 = Serine protease 1 (Homo sapiens, UniProt P07477); assay: Inhibitory constant against trypsin determined in Vitro; Inact. means Inactive
Coagulation factor X [6] = biological target: T1, Coagulation factor X; assay: Inhibitory constant against human Coagulation factor Xa determined in Vitro; Inact. means Inactive
[7] = Maximum plasma concentration was determined as in dogs at 1 mg/kg oral dosing Cmax; 0.05-0.2 ug/mL; assay type: ADME, organism-based, Canis lupus familiaris; parameters: dose 1 mg/kg, route oral; settings: dog

Chain of Serine protease 1 (P07477 whole entry): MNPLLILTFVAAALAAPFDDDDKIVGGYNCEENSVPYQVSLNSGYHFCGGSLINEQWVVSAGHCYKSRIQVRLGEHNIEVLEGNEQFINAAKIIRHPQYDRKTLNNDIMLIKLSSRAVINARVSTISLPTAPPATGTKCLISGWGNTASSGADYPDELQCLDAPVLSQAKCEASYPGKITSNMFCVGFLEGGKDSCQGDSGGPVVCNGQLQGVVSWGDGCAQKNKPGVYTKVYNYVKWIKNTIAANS
T1 sequence (P00742 41-179 limits assumed): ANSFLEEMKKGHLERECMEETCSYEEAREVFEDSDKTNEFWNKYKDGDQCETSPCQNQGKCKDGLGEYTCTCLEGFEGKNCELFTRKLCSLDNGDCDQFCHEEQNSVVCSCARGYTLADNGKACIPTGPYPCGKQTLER
T1 sequence (P00742 235-488 limits assumed): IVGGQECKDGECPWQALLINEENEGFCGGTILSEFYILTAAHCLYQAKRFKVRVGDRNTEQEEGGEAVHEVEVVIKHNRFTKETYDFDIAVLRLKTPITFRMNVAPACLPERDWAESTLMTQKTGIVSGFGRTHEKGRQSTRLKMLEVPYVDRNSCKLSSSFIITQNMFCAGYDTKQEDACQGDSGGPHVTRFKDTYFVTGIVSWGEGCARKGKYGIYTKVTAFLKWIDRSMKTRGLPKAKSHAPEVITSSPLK

SMILES	Ki (Trypsin)	bioavailability [1]	Ki (Coagulation factor X [2])	Ki (Prothrombin)	Cmax [3]	half-life [4]	AUC [5]	Ki (Serine protease 1)	Ki (Coagulation factor X [6])	Cmax [7]
COC(=O)c1ccccc1CS(=O)(=O)N[C@H]1CCCCN(CC(=O)N[C@H](C=O)CCCNC(=N)N)C1=O	16 nM	67%								
COC(=O)c1ccccc1CS(=O)(=O)N[C@H]1CCCCN(CC(=O)N[C@@H](CCCNC(=N)N)C(=O)O)C1=O			93 nM	0.95 nM						
N=C(N)NCCC[C@@H](C=O)NC(=O)CN1CCCC[C@H](NS(=O)(=O)Cc2ccccc2)C1=O	18 nM	66%								
N=C(N)NCCC[C@H](NC(=O)CN1CCCC[C@H](NS(=O)(=O)Cc2ccccc2)C1=O)C(=O)O			40 nM	0.54 nM						
N=C(N)c1ccc(CC(=O)CN2CCCC[C@H](NS(=O)(=O)c3ccccc3)C2=O)cc1	8.3 nM		> 338 nM	19.4 nM	~50 ng/mL	~35 min	~417 ng·h/mL			
N=C(N)c1ccc(CC(=O)CN2CCCC[C@H](NS(=O)(=O)c3ccc4c(c3)CCO4)C2=O)c(F)c1	7.6 nM		> 338 nM	29.8 nM	~50 ng/mL	~35 min	~417 ng·h/mL			
N=C(N)c1ccc(CC(=O)CN2CCCC[C@H](NS(=O)(=O)c3ccc4c(c3)CCO4)C2=O)s1	5.9 nM		52.7 nM	0.6 nM	~50 ng/mL	~35 min	~417 ng·h/mL			
O=C(Cc1ccc2[nH]ncc2c1)CN1CCCC[C@H](NS(=O)(=O)c2ccc3c(c2)CCO3)C1=O				283 nM	~50 ng/mL	~35 min	~417 ng·h/mL	Not Active	Not Active	
COc1ccc(S(=O)(=O)N[C@H]2CCCCN(CC(=O)CC3CCN(C(=N)N)CC3)C2=O)cc1OC	> 1678 nM		> 338 nM	85.7 nM	~50 ng/mL	~35 min	~417 ng·h/mL			
N=C(N)N1CCC(CC(=O)[C@@H]2Cc3cccc4c3N2C(=O)[C@@H](NS(=O)(=O)c2ccc3c(c2)CCO3)CC4)CC1	2.5 nM		49.2 nM	10.8 nM		~35 min	~417 ng·h/mL			~50 ng/mL
N[C@H]1CC[C@H](CC(=O)CN2CCCC[C@H](NS(=O)(=O)c3ccc4c(c3)CCO4)C2=O)CC1	> 1678 nM			53.2 nM	~50 ng/mL	~35 min	~417 ng·h/mL		Not Active	
N/C(=N\O)c1ccc(CC(=O)CN2CCCC[C@H](NS(=O)(=O)c3ccc4c(c3)CCO4)C2=O)cc1	80.5 nM			240 nM	~50 ng/mL	~35 min	~417 ng·h/mL		Not Active	
COc1ccc(OC)c(S(=O)(=O)N[C@H]2CCCCN(CC(=O)Cc3ccc(C(=N)N)cc3)C2=O)c1	35.2 nM		> 338 nM	9 nM	~50 ng/mL	~35 min	~417 ng·h/mL			
N=C(N)N1CCC(CC(=O)CN2CCCC[C@H](NS(=O)(=O)c3ccc4c(c3)CCO4)C2=O)CC1	872.5 nM			23.8 nM	~50 ng/mL	~35 min	~417 ng·h/mL		Not Active	
N[C@H]1CC[C@H](CC(=O)CN2CCCC[C@H](NS(=O)(=O)Cc3ccccc3)C2=O)CC1				195 nM	~50 ng/mL	~35 min	~417 ng·h/mL	Not Active	Not Active	
Cc1nc(N)ccc1CC(=O)CN1CCCC[C@H](NS(=O)(=O)Cc2ccccc2)C1=O	1678 nM			92.9 nM	~50 ng/mL	~35 min	~417 ng·h/mL		Not Active	
N=C(N)c1ccc(CC(=O)CN2CCCC[C@H](NS(=O)(=O)Cc3ccccc3)C2=O)cc1	84.6 nM		315 nM	19.4 nM	~50 ng/mL	~35 min	~417 ng·h/mL			
N/C(=N\O)c1ccc(CC(=O)CN2C(=O)[C@@H](NS(=O)(=O)c3ccc4c(c3)CCO4)CCc3ccccc32)cc1				> 397 nM	~50 ng/mL	~35 min	~417 ng·h/mL	Not Active	Not Active	
N=C(N)c1ccc(CC(=O)CN2C(=O)[C@@H](NS(=O)(=O)c3ccc4c(c3)CCO4)CCc3ccccc32)cc1	19.5 nM		> 338 nM	14.4 nM	~50 ng/mL	~35 min	~417 ng·h/mL			
COc1ccc(OC)c(S(=O)(=O)N[C@H]2CCCCN(CC(=O)CC3CCN(C(=N)N)CC3)C2=O)c1				167 nM	~50 ng/mL	~35 min	~417 ng·h/mL	Not Active	Not Active	
COc1ccc(S(=O)(=O)N[C@H]2CCCCN(CC(=O)Cc3ccc(C(=N)N)cc3)C2=O)cc1OC	11.6 nM		> 338 nM	13.3 nM	~50 ng/mL	~35 min	~417 ng·h/mL			
Cc1nc(N)ccc1CC(=O)CN1CCC[C@H](NS(=O)(=O)Cc2ccccc2)C1=O	> 1678 nM			> 397 nM	~50 ng/mL	~35 min	~417 ng·h/mL		Not Active	
N=C(N)N1CCC(CC(=O)CN2CCCC[C@H](NS(=O)(=O)c3ccccc3)C2=O)CC1	1678 nM		> 338 nM	71.4 nM	~50 ng/mL	~35 min	~417 ng·h/mL			
N=C(N)c1ccc(CC(=O)CN2CCCC[C@H](NS(=O)(=O)c3ccc4c(c3)CCO4)C2=O)cc1	3.2 nM		> 338 nM	6.2 nM	~50 ng/mL	~35 min	~417 ng·h/mL			
N=C(N)c1ccc(CC(=O)CN2CCCC[C@H](NS(=O)(=O)c3ccc4ccccc4c3)C2=O)cc1	12.3 nM		> 338 nM	163 nM	~50 ng/mL	~35 min	~417 ng·h/mL			
Cc1nc(N)ccc1CC(=O)CN1CCCC[C@H](NS(=O)(=O)c2ccc3c(c2)CCO3)C1=O	1678 nM		> 338 nM	39.5 nM	~50 ng/mL	~35 min	~417 ng·h/mL			
N=C(N)N1CCC(CC(=O)CN2C(=O)[C@@H](NS(=O)(=O)c3ccc4c(c3)CCO4)CCc3ccccc32)CC1				61 nM	~50 ng/mL	~25 min	~417 ng·h/mL	Not Active	Not Active	
